Results reported in patent US20100197657A1, “2-ARYL OR HETEROARYL INDOLE DERIVATIVES” (priority 2007, published 2010).
Blank lines part the entries; values can stand above or below the compound they belong to.

Columns and labels:
human ASIC3 = target: T1, human ASIC3 (Homo sapiens, UniProt Q9UHC3); assay: In vitro assay for ASIC activity, whole-cell patch clamp, hASIC3 cell line; type: cell-based; conditions: for block of inward current evoked by pH5.5 in the hASIC3 cell line: pre-application of 10 μM; for inhibition at 10 µM: percent inhibition vs. baseline current, read-out: levels of inhibition of acid-evoked ASIC current; for inhibition of human ASIC3 current with increasing concentrations (FIG. 1): increasing concentrations of compound; for inhibition of inward current evoked by pH5.5 in the hASIC3 cell line: pre-application of 300 nM
T1 construct: expressed in transfected cells; host or cells: HEK293
T1 sequence (Q9UHC3 1-531): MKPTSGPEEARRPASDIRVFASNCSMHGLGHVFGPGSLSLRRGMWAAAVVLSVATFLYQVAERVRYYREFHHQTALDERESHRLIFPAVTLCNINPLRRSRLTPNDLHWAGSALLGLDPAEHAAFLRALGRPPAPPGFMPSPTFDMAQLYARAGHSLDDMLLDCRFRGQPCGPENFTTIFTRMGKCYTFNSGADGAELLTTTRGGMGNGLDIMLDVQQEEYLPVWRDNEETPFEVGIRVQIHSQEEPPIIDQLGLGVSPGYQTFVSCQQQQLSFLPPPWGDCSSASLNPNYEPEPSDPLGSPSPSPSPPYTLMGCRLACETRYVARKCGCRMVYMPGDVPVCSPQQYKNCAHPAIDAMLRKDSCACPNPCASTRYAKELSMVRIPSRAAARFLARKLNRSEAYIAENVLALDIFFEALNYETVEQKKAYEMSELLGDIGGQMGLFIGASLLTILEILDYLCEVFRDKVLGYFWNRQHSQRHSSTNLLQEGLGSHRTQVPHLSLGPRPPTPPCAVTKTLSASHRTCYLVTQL
Description: (§1) Cell Preparation: Human embryonic kidney cells (HEK293) stably expressing the human ASIC ion channel, are grown to 70-90% confluence in T75 cell culture flasks. Cells are lifted by removing the growth media and incubating with 3 ml of warmed (37° C.) 50/50 Trypsin/Dulbecco's Solution (GIBCO, USA) for 4-6 minutes. 7 ml of pH7.4_HBS (see Solutions and Drugs) is then added to block Trypsin activity. The cell suspension is placed into a 10 ml centrifuge tube and centrifuged for 1 minute @ 150×G. After centrifugation, the supernatant is aspirated and the cell pellet is re-suspended in 2-5 ml of pH7.4_HBS for a final cell density of ˜0.6×10^6 cells/ml. For whole-cell patch clamp, approximately 1000 cells are placed in a recording chamber containing standard bath solution for electrophysiological recording.
Solutions and Drugs: The intracellular solution contains (mM): 119 K-gluconate, 15 KCl, 3.2 MgCl2, 5 EGTA, 5 HEPES, 5 K2ATP, pH 7.3. The standard bath solution (pH7.4_HBS) contains (mM): 150 NaCl, 5 KCl, 2 CaCl2, 1 MgCl2, 10 HEPES, 12 Dextrose, pH 7.4. The acid-activation bath solution (pH5.5_MBS) contains (mM): 150 NaCl, 5 KCl, 2 CaCl2, 1 MgCl2, 10 MES, 12 Dextrose, pH 5.5. Test compounds were prepared as 2 or 10 mM stock solutions in DMSO and diluted in either pH7.4_HBS or pH5.5_MBS to final concentration.
Electrophysiological recording: Patch clamp recording pipettes were pulled from borosilicate glass and typically had 2-4 MOhm resistances. Whole cell currents were recorded with a patch clamp amplifier (Multiclamp 700B, Axon Instruments Inc). Holding and test potential was −60 mV. Control and compound solutions perfused the vicinity of the cell with flow controlled by computer-operated solenoid valves. 10-90% solution exchange typically took <20 ms. After establishment of whole cell configuration, cells were perfused with pH7.4_HBS. Baseline ASIC current was determined by application of pH5.5_MBS at two minute intervals. After a stable ASIC current was determined, inhibition of acid evoked current was determined by multiple applications of increasing concentrations (3-fold dilution) of compound. Inhibition of current was expressed as percent inhibition vs. baseline current. A minimum of three independent determinations at each concentration of compound was used for each data point. IC50s were determined using the Hill Equation.

ASIC = conditions: cited from earlier work; for inhibition of ASIC current: Psalmotoxin-1 selective for ASIC1, APETx2 selective for ASIC3
human ASIC1 = target: T2, human ASIC1 (Homo sapiens, UniProt P78348); assay: In vitro assay for ASIC activity, whole-cell patch clamp, hASIC1 cell line; type: cell-based
T2 construct: expressed in transfected cells; host or cells: HEK293
T2 sequence (P78348 1-528): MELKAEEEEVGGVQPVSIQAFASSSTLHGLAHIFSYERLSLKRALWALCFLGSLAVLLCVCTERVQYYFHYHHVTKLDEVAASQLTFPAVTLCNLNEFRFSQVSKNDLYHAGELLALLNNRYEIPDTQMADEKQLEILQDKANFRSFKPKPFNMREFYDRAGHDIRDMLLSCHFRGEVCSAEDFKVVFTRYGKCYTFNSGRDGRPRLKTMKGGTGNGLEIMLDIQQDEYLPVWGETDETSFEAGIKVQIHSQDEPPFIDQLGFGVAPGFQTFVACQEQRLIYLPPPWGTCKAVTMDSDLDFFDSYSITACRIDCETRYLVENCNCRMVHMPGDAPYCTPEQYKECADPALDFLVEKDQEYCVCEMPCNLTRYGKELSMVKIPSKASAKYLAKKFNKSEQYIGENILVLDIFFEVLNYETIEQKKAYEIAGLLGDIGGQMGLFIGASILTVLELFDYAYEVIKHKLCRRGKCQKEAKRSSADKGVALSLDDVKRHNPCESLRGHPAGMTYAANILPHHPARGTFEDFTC
Description: as §1, with “recording. […]” for “recording.”
Electrophysiological recording: Patch clamp recording pipettes were pulled from borosilicate glass and typically had 2-4 MOhm resistances. Whole cell currents were recorded with a patch clamp amplifier (Multiclamp 700B, Axon Instruments Inc). […] After a stable ASIC current was determined, inhibition of acid evoked current was determined by multiple applications of increasing concentrations (3-fold dilution) of compound. Inhibition of current was expressed as percent inhibition vs. baseline current. […] IC50s were determined using the Hill Equation.

Compound: APETx2
- inhibition of ASIC current (ASIC): inhibit ASIC current at nM concentrations

Compound: N=C(N)c1ccc2[nH]c(-c3cccc(CO)c3)cc2c1 [EXAMPLE 2]
- block of inward current evoked by pH5.5 in the hASIC3 cell line (human ASIC3): did not block the proton-evoked current

Compound: CC(C)C1c2cc(C3CC3c3ccc4cc(C(=N)N)ccc4c3)ccc2CCN1C (stereo not shown) [A-317567]
- increase in potency vs. amiloride (ASIC; in vivo and in vitro assays): > 10 fold

Compound: Psalmotoxin-1 (EDCIPKWKGCVNRHGDCCEGLECWKRRRSFEVCVPKTPKT; Pi-theraphotoxin-Pc1a; UniProt P60514 1-40, looked up)
- inhibition of ASIC current (ASIC): inhibit ASIC current at nM concentrations

Compound: NCc1ccc2[nH]c(-c3ccccc3)c(CN)c2c1 [compound 28, (2-Phenyl-1H-indole-3,5-diyl)dimethanamine]
- inhibition at 10 µM (human ASIC3): > 20%

Compound: NCc1ccc2[nH]c(-c3cc(Cl)nc(Cl)c3)cc2c1 [compound 50, 1-[2-(2,6-Dichloropyridin-4-yl)-1H-indol-5-yl]methanamine]
- inhibition at 10 µM (human ASIC3): > 20%

The next lines start with results.

- block of inward current evoked by pH5.5 in the hASIC3 cell line (human ASIC3): blocked the proton-evoked current
Compound: N=C(N)c1ccc2[nH]c(-c3cc(Cl)cc(Br)c3)cc2c1 [EXAMPLE 3]

- inhibition at 10 µM (human ASIC3): > 20%
Compound: N=C(Nc1ccccc1)c1ccc2[nH]c(-c3cc(Cl)cc(Cl)c3)cc2c1 [compound 21, 2-(3,5-dichlorophenyl)-N-phenyl-1H-indole-5-carboximidamide]

- inhibition of human ASIC3 current with increasing concentrations (FIG. 1) (human ASIC3): dose dependent inhibition
- inhibition of inward current evoked by pH5.5 in the hASIC3 cell line (human ASIC3): inhibited the proton-evoked current
Compound: N=C(N)c1ccc2[nH]c(-c3cc(Br)cc(Br)c3)cc2c1 [EXAMPLE 4]

- inhibition of proton-evoked current in HEK cells expressing human ASIC3 (FIG. 2) (human ASIC3; HEK cells, human ASIC3): inhibits proton-evoked current
- inhibition at 10 µM (human ASIC3): > 20%
- inhibition of human ASIC3 current with increasing concentrations (FIG. 1) (human ASIC3): dose dependent inhibition
- inhibition of proton-evoked current in HEK cells expressing human ASIC1 (FIG. 2) (human ASIC1; HEK cells, human ASIC1): inhibits proton-evoked current
Compound: N=C(N)c1ccc2[nH]c(-c3cc(Cl)cc(Cl)c3)cc2c1 [EXAMPLE 1, 2-(3,5-Dichlorophenyl)-1H-indole-5-carboximidamide]
- inhibition of inward current evoked by pH5.5 in the hASIC3 cell line (human ASIC3): inhibits the majority of the proton-evoked current
- inhibition of inward current evoked by pH6.5 in the hASIC1 cell line (human ASIC1; pre-application of 300 nM, pH6.5): inhibits a large fraction of this current
